Measurements: ChEMBL document CHEMBL1150670, “Anti-HIV agents derived from the ent-kaurane diterpenoid linearol” (J Nat Prod, 2002)
≈ marks a conversion by molar mass, not a printed value. Calls of active or inactive are those of the source. No cut-off for these calls is given here.

What was measured:
H9 = assay: Cytotoxicity against human H9 cells by Coulter counting analysis; type: cell-based
[1] = Therapeutic index, ratio of IC50 for human H9 cells to EC50 for HIV1 3B replication in human H9 cells; type: cell-based; details: read-out: Ratio IC50/EC50
[2] = system: Human immunodeficiency virus 1; assay: Antiviral activity against HIV1 3B replication in human H9 cells assessed as inhibition of p24 antigen production after 4 days by ELISA; type: functional, organism-based; details: for EC50: Human immunodeficiency virus 1, 3B, H9, 96 h

In the case of `C=C1C[C@@]23C[C@@H]1CC[C@H]2[C@]1(C)CC[C@@H](OC(=O)c2ccc4c(c2)OCO4)[C@](C)(COC(C)=O)[C@@H]1C[C@@H]3OC(=O)c1ccc2c(c1)OCO2`, the IC50 (H9) is reported as 50.6 µg/mL (≈ 76.8 µM), the selectivity ratio [1] is reported as 184 and the EC50 [2] is reported as 0.27 µg/mL (≈ 0.41 µM).

In the case of `C=C1C[C@@]23C[C@@H]1CC[C@H]2[C@]1(C)CC[C@@H](OC(=O)c2ccc(F)cc2)[C@](C)(COC(C)=O)[C@@H]1C[C@@H]3OC(=O)c1ccc(F)cc1`, the IC50 (H9) is reported as 41.1 µg/mL (≈ 67.7 µM) and the Activity [2] is reported as “inactive”.

With `CC(=O)OC[C@]1(C)[C@@H]2C[C@H](O)[C@]34C[C@H](CC[C@H]3[C@]2(C)CC[C@H]1O)[C@@]1(CO1)C4` the IC50 (H9) was > 100 µg/mL.

With `C=C1C[C@@]23C[C@@H]1CC[C@H]2[C@]1(C)CC[C@@H](OC(=O)c2ccc(SC)cc2)[C@](C)(COC(C)=O)[C@@H]1C[C@@H]3O` the IC50 (H9) was 5.3 µg/mL (≈ 10.3 µM) and the Activity [2] was “inactive”.

With `C=C1C[C@@]23C[C@@H]1CC[C@H]2[C@]1(C)CC[C@@H](O)[C@](C)(COC(C)=O)[C@@H]1C[C@@H]3O` [LINEAROL] the IC50 (H9) was 56.5 µg/mL (≈ 156 µM) and the Activity [2] was “inactive”.

In the case of `C=C1C[C@@]23C[C@@H]1CC[C@H]2[C@]1(C)CC[C@@H](OC(=O)c2ccc(SC)cc2)[C@](C)(COC(C)=O)[C@@H]1C[C@@H]3OC(=O)c1ccc(SC)cc1`, the IC50 (H9) is reported as 59.8 µg/mL (≈ 90.2 µM) and the Activity [2] is reported as “inactive”.

For `CC(=O)O[C@@H]1CC[C@]2(C)[C@@H](C[C@H](O)[C@]34C[C@H](CC[C@@H]23)[C@@]2(CO2)C4)[C@@]1(C)CO`, the IC50 (H9) was > 100 µg/mL and the Activity [2] was “inactive”.

In the case of `C=C1C[C@@]23C[C@@H]1CC[C@H]2[C@]1(C)CC[C@@H](OC(=O)c2ccc([N+](=O)[O-])cc2)[C@](C)(COC(C)=O)[C@@H]1C[C@@H]3OC(=O)c1ccc([N+](=O)[O-])cc1`, the IC50 (H9) is reported as > 100 µg/mL and the Activity [2] is reported as “inactive”.

With `C=C1C[C@@]23C[C@@H]1CC[C@H]2[C@]1(C)CC[C@@H](OC(=O)c2ccc(OC)cc2)[C@](C)(COC(C)=O)[C@@H]1C[C@@H]3OC(=O)c1ccc(OC)cc1` the IC50 (H9) was 1.9 µg/mL (≈ 3.01 µM), the selectivity ratio [1] was > 19.2 and the EC50 [2] was < 0.1 µg/mL.

In the case of `C=C1C[C@@]23C[C@@H]1CC[C@H]2[C@]1(C)CC[C@@H](OC(=O)c2ccccc2OC)[C@](C)(COC(C)=O)[C@@H]1C[C@@H]3O`, the IC50 (H9) is reported as 5.4 µg/mL (≈ 10.9 µM) and the Activity [2] is reported as “inactive”.

With `C=C1C[C@@]23C[C@@H]1CC[C@H]2[C@]1(C)CC[C@@H](OC(=O)c2ccccc2OC)[C@](C)(COC(C)=O)[C@@H]1C[C@@H]3OC(=O)c1ccccc1OC` the IC50 (H9) was 6 µg/mL (≈ 9.51 µM) and the Activity [2] was “inactive”.

With `C=C1C[C@@]23C[C@@H]1CC[C@H]2[C@]1(C)CC[C@@H](OC(=O)CC)[C@](C)(COC(C)=O)[C@@H]1C[C@@H]3OC(=O)CC` the IC50 (H9) was 16 µg/mL (≈ 33.7 µM), the selectivity ratio [1] was 6.1 and the EC50 [2] was 2.63 µg/mL (≈ 5.54 µM).

In the case of `C=C1C[C@@]23C[C@@H]1CC[C@H]2[C@]1(C)CC[C@@H](OC(=O)c2ccc(Cl)cc2)[C@](C)(COC(C)=O)[C@@H]1C[C@@H]3OC(=O)c1ccc(Cl)cc1`, the IC50 (H9) is reported as 60.1 µg/mL (≈ 94 µM) and the Activity [2] is reported as “inactive”.

For `C=C1C[C@@]23C[C@@H]1CC[C@H]2[C@]1(C)CC[C@@H](OC(=O)c2ccccc2)[C@](C)(COC(C)=O)[C@@H]1C[C@@H]3O`, the IC50 (H9) was 1.8 µg/mL (≈ 3.86 µM) and the Activity [2] was “inactive”.

For `C=C1C[C@@]23C[C@@H]1CC[C@H]2[C@]1(C)CC[C@@H](OC(=O)c2cccc([N+](=O)[O-])c2)[C@](C)(COC(C)=O)[C@@H]1C[C@@H]3OC(=O)c1cccc([N+](=O)[O-])c1`, the IC50 (H9) was 21.4 µg/mL (≈ 32.4 µM) and the Activity [2] was “inactive”.

With `C=C1C[C@@]23C[C@@H]1CC[C@H]2[C@]1(C)CC[C@@H](OC(=O)c2ccccc2)[C@](C)(COC(C)=O)[C@@H]1C[C@@H]3OC(=O)c1ccccc1` the IC50 (H9) was 2.2 µg/mL (≈ 3.85 µM) and the Activity [2] was “inactive”.

In the case of `C=C1C[C@@]23C[C@@H]1CC[C@H]2[C@]1(C)CC[C@@H](OC(=O)c2ccc(C)cc2)[C@](C)(COC(C)=O)[C@@H]1C[C@@H]3OC(=O)c1ccc(C)cc1`, the IC50 (H9) is reported as 52.5 µg/mL (≈ 87.7 µM), the selectivity ratio [1] is reported as 50.1 and the EC50 [2] is reported as 1.05 µg/mL (≈ 1.75 µM).

For `C=C1C[C@@]23C[C@@H]1CC[C@H]2[C@]1(C)CC[C@@H](OC(=O)c2ccc(F)cc2)[C@](C)(COC(C)=O)[C@@H]1C[C@@H]3O`, the IC50 (H9) was 57.7 µg/mL (≈ 119 µM) and the Activity [2] was “inactive”.

For `CC(=O)OC[C@]1(C)[C@@H]2C[C@H](O)[C@@]34CC(=O)[C@@H](CC[C@H]3[C@]2(C)CC[C@H]1O)C4`, the IC50 (H9) was > 100 µg/mL and the Activity [2] was “inactive”.

With `C=C1C[C@@]23C[C@@H]1CC[C@H]2[C@]1(C)CC[C@@H](OC(=O)c2ccc(OC)cc2)[C@](C)(COC(C)=O)[C@@H]1C[C@@H]3O` the IC50 (H9) was 2 µg/mL (≈ 4.03 µM) and the Activity [2] was “inactive”.

For `C=C1C[C@@]23C[C@@H]1CC[C@H]2[C@]1(C)CC[C@@H](OC(=O)c2ccc(Cl)cc2)[C@](C)(COC(C)=O)[C@@H]1C[C@@H]3O`, the IC50 (H9) was 54 µg/mL (≈ 108 µM) and the Activity [2] was “inactive”.

With `C=C1C[C@@]23C[C@@H]1CC[C@H]2[C@]1(C)CC[C@@H](OC(=O)c2ccco2)[C@](C)(COC(C)=O)[C@@H]1C[C@@H]3OC(=O)c1ccco1` the IC50 (H9) was 10.8 µg/mL (≈ 19.6 µM), the selectivity ratio [1] was 3.49 and the EC50 [2] was 3.11 µg/mL (≈ 5.65 µM).

In the case of `C=C1C[C@@]23C[C@@H]1CC[C@H]2[C@]1(C)CC[C@@H](OC(=O)CC)[C@](C)(COC(C)=O)[C@@H]1C[C@@H]3O`, the IC50 (H9) is reported as 22.2 µg/mL (≈ 53 µM) and the Activity [2] is reported as “inactive”.

For `C=C1C[C@@]23C[C@@H]1CC[C@H]2[C@]1(C)CC[C@@H](OC(=O)c2ccc4c(c2)OCO4)[C@](C)(COC(C)=O)[C@@H]1C[C@@H]3O`, the IC50 (H9) was 5.3 µg/mL (≈ 10.4 µM) and the Activity [2] was “inactive”.

With `C=C1C[C@@]23C[C@@H]1CC[C@H]2[C@]1(C)CC[C@@H](OC(=O)c2cnccn2)[C@](C)(COC(C)=O)[C@@H]1C[C@@H]3OC(=O)c1cnccn1` the IC50 (H9) was 5.6 µg/mL (≈ 9.74 µM) and the Activity [2] was “inactive”.

Work on `CC(=O)OC[C@]1(C)[C@@H]2C[C@H](OC(C)=O)[C@]34C[C@H](CC[C@H]3[C@]2(C)CC[C@H]1OC(C)=O)[C@@]1(CO1)C4` yielded an IC50 (H9) of 20.6 µg/mL (≈ 44.5 µM), a selectivity ratio [1] of 163 and an EC50 [2] of 0.13 µg/mL (≈ 0.281 µM).

With `C=C1C[C@@]23C[C@@H]1CC[C@H]2[C@]1(C)CC[C@@H](OC(=O)c2ccc(C#N)cc2)[C@](C)(COC(C)=O)[C@@H]1C[C@@H]3OC(=O)c1ccc(C#N)cc1` the IC50 (H9) was > 100 µg/mL and the Activity [2] was “inactive”.
